Measurements from a flash point compilation (Sun et al. 2020).
Counter-ions that a name gives are not always drawn.

Row | flash point [°C] | SMILES
1 | 15.00 | CCc1ccccc1 [ethylbenzene]
2 | -15.00 | Fc1ccccc1 [fluorobenzene]
3 | 60.00 | C=O [formaldehyde]
4 | 154.00 | NC=O [formamide]
5 | 69.00 | O=CO [formic acid]
6 | 103.00 | O=C1C=CC(=O)O1 [furan-2,5-dione]
7 | 37.00 | NCc1ccco1 [furan-2-ylmethanamine]
8 | -4.00 | C=CCCCCC [hept-1-ene]
9 | 46.00 | CCCCCCCS [heptane-1-thiol]
10 | -26.00 | C=CCCCC [hex-1-ene]
11 | 102.00 | CCCCCCCCCCCCCCCCS [hexadecane-1-thiol]
12 | 29.00 | CCCCCCN [hexan-1-amine]
13 | 41.00 | CCCCC(C)O (centres undefined) [hexan-2-ol]
14 | 20.00 | CCCCCCS [hexane-1-thiol]
15 | 28.00 | CCCC(=O)C(C)=O [hexane-2,3-dione]
16 | 82.00 | C=C(C)C(=O)OCCCCCC [hexyl 2-methylprop-2-enoate]
17 | 37.00 | CCCCCCOC(C)=O [hexyl acetate]
18 | -188.00 | C [methane]
19 | -37.00 | CCOC [methoxyethane]
20 | -56.00 | C=COC [methoxyethene]
21 | 91.00 | CNc1ccccc1C(=O)OC [methyl 2-(methylamino)benzoate]

Continued, molecule first:

Row | SMILES | flash point [°C]
22 | NCCN [ethane-1,2-diamine] | 34.00
23 | OCCO [ethane-1,2-diol] | 111.00
24 | CC [ethane] | -135.00
25 | CC(=O)OO [ethaneperoxoic acid] | 41.00
26 | C=COC(C)=O [ethenyl acetate] | -8.00
27 | C=COC(=O)CCC [ethenyl butanoate] | 20.00
28 | CCOCC.FB(F)F [ethoxyethane;trifluoroborane] | 64.00
29 | CCOC(=O)CCl [ethyl 2-chloroacetate] | 38.00
30 | CCOC(=O)CC#N [ethyl 2-cyanoacetate] | 110.00
31 | CCOC(=O)Cc1ccccc1 [ethyl 2-phenylacetate] | 99.00
32 | CCOCCC(=O)OCC [ethyl 3-ethoxypropanoate] | 59.00
33 | CCOC(=O)CC(C)=O [ethyl 3-oxobutanoate] | 57.00
34 | CCOC(=O)NCCOc1ccc(Oc2ccccc2)cc1 [ethyl N-[2-(4-phenoxyphenoxy)ethyl]carbamate] | 224.00
35 | CCOC(C)=O [ethyl acetate] | -4.00
36 | CCOP(=O)(O)O [ethyl dihydrogen phosphate] | 116.00
37 | CCOC=O [ethyl formate] | -20.00
38 | CCOS(C)(=O)=O [ethyl methanesulfonate] | 100.00
39 | C=CC(=O)OCC [ethyl prop-2-enoate] | 9.00
40 | C=O.O=C=Nc1ccccc1 [formaldehyde;isocyanatobenzene] | 218.00
41 | CC(=O)CCC(C)=O [hexane-2,5-dione] | 79.00
42 | N#CCCCCC#N [hexanedinitrile] | 93.00
43 | CCCCCC(=O)O [hexanoic acid] | 104.00
44 | S=C1NCCN1 [imidazolidine-2-thione] | 252.00
45 | CCI [iodoethane] | 61.00
46 | O=C=NC1CCCCC1 [isocyanatocyclohexane] | 49.00
47 | S=C=S [methanedithione] | -30.00
48 | CS [methanethiol] | -18.00
49 | COC(=O)C(Cl)Cl [methyl 2,2-dichloroacetate] | 80.00
